# Results published in PubChem BioAssay AID1253 (Columbia University Molecular Screening Center, 2008).
# Active and inactive are the calls of the source.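 The calls were made as follows: active = IC50 under 10 µM in the follow-up dose response; inactive = IC50 10 µM or more, or under 40% single-dose inhibition.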
# Target: Tyrosine-protein phosphatase non-receptor type 22 (Homo sapiens) (UniProt Q9Y2R2)
# Experiment: LYP phosphatase inhibitors, confirmation, biochemical, DiFMUP fluorescence, retest and dose response (AID 1253)
# Details: recombinant LYP
# Chain of Tyrosine-protein phosphatase non-receptor type 22 (Homo sapiens) (Q9Y2R2 whole entry, looked up): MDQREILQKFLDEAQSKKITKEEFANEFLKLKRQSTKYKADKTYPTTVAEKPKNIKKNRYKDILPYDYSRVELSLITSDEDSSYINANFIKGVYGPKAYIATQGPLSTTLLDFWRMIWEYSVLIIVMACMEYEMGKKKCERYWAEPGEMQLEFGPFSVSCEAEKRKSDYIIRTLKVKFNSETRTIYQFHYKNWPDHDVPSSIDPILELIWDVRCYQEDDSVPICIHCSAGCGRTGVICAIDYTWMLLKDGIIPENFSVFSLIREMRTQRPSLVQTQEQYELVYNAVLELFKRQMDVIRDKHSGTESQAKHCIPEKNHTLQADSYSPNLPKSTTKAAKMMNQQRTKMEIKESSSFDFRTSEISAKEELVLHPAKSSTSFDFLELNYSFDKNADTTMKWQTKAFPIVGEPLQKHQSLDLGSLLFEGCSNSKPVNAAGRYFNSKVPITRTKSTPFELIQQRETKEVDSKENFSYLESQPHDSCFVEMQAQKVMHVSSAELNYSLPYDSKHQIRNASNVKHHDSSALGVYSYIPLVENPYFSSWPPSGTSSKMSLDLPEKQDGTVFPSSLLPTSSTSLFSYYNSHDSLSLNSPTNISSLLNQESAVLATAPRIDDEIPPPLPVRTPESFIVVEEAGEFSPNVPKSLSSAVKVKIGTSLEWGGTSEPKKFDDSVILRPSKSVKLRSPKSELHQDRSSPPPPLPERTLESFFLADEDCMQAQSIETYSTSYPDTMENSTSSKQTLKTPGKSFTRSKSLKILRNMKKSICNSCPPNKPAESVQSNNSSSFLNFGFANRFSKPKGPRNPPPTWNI
row,Structure (SMILES),IC50 [nM]
1,Cc1c2cc(O)c(=O)cc-2oc2cc(O)c(O)cc12,480
2,Nc1c(C(=O)Nc2nc3ccccc3s2)sc2nc(-c3cccs3)ccc12,1240
3,O=C(c1cccs1)c1no[n+]([O-])c1C(=O)c1cccs1,1660
4,O=C(O)CCCN1C(=O)/C(=C/c2ccc(-c3nc4ccccc4s3)o2)SC1=S,1130
5,COc1cc(-c2nnc(SCc3cc(=O)oc4cc(O)c(O)cc34)o2)cc(OC)c1OC,2600

# Same assay, conditions: recombinant LYP, at 10 µM, hits give high values
row,Structure (SMILES),inhibition
1,CNC(=S)NNC(=O)c1cccn(Cc2cccc(Cl)c2)c1=O,inactive
2,CCn1c(CSc2nc3ccccc3s2)nnc1SCC(=O)c1ccc(O)c(O)c1,inactive
3,N#Cc1nc(-c2ccc(OCc3ccc(Cl)cc3)cc2)oc1NCCCn1ccnc1,inactive
4,Nn1cnnc1N/N=C/c1cc(Br)cc(Br)c1O,inactive
5,Cc1ccc(C(=O)NNC(=O)CSc2nnc3c(n2)[nH]c2ccc(F)cc23)cc1,inactive
6,Cc1nn(-c2ccccc2)c(Cl)c1/C=N/Nc1ccc(S(=O)(=O)Nc2ccccc2C(=O)O)cc1[N+](=O)[O-],inactive
7,Cc1cc(-c2csc(N)n2)c(C)n1CCC(C)C,inactive
8,CC(=O)NC1CC2CCCC(C1)N2C(=O)Nc1ccccc1 (stereo unspecified),inactive
9,c1ccc(-c2nccc(-c3ccc(-n4cnc5ccccc54)cc3)n2)nc1,inactive
10,COc1ccc2nc(SCc3cnc(C)nc3N)[nH]c2c1,inactive
11,S=c1[nH]nc(COc2ccccc2)n1/N=C/C(Cl)=C/c1ccccc1,inactive
12,CNC(=S)NNC(=O)c1cccn(Cc2ccc(Cl)cc2Cl)c1=O,inactive
13,Cc1cc(SCC(=O)N/N=C/c2ccc(O)c(O)c2O)c(C)cc1Br,inactive
14,Cc1cc(C(C)(C)C)cc(C)c1COC(=O)C1CCC(=O)N1 (stereo unspecified),inactive
15,C=CCNC(=S)NNC(=O)c1cccn(Cc2ccc(Cl)c(Cl)c2)c1=O,inactive
16,CCOC(=O)c1c(-n2c(C)cc(C=C3C(=O)NC(=S)NC3=O)c2C)sc2c1CCCC2,inactive
17,Cc1ccc2c(Cl)cc(Cl)c(OCC(=O)NCc3ccco3)c2n1,inactive
18,CCCn1c(Nc2ccc(Cl)cc2)nc2ccccc21,inactive
19,O=C(N/N=C/c1cccc([N+](=O)[O-])c1)c1cc2c(ccc3ccccc32)o1,inactive
20,COCCn1c(Cc2ccccc2)nnc1SCc1nc2ccccc2c(=O)[nH]1,inactive
21,c1ccc(-c2cc(-c3nnc4n3N=C(c3ccc5ccccc5c3)CS4)[nH]n2)cc1,inactive
22,CCOc1ccc(N=C2NC(=O)S/C2=C\c2ccc(Cl)cc2)cc1,inactive

row,Structure (SMILES),inhibition
1,CCOC(=O)Cc1csc(NC(=S)NC(=O)c2ccc(Cl)cc2)n1,inactive
2,O=C(Nc1nc(-c2ccccn2)cs1)c1ncc(Cl)c(Cl)c1Cl,inactive
3,Cc1c(CCOC(=O)C2C3CC4CC(C3)CC2C4)sc[n+]1CC(=O)c1ccc(Br)cc1 (stereo unspecified),inactive
4,NC(=O)C1CCN(C(c2ccccc2Cl)c2nnnn2CC2CCCO2)CC1 (stereo unspecified),inactive
5,CCC(C)n1c(C)nc2c(c1=O)c1nc3ccccc3nc1n2CCC1=CCCCC1 (stereo unspecified),inactive
6,Cc1nc(S/C(=C/c2ccc(-c3cccc(Cl)c3)o2)C(=O)O)n[nH]1,inactive
7,O=S(=O)(Nc1nc(-c2sccc2Cl)cs1)c1cc(Cl)ccc1Cl,inactive
8,CCCCNS(=O)(=O)c1ccc(NS(=O)(=O)c2c(C)cc(C)cc2C)cc1,inactive
9,COc1ccc2cc3cc(C(=O)N4CCN(Cc5ccc6c(c5)OCO6)CC4)oc3nc2c1,inactive
10,C=CCNC(=S)NNC(=O)c1cccn(Cc2ccc(Cl)cc2Cl)c1=O,inactive
11,Cc1nc2ccc(S(=O)(=O)NCC(=O)NCc3ccc4c(c3)OCO4)cc2s1,inactive
12,Cc1ccc(-c2nc3ccccc3[nH]2)cc1NC(=O)c1sc2ccccc2c1Cl,inactive
13,O=C(CCN1C(=O)c2ccccc2C1=O)Oc1ccc2ccccc2c1,inactive
14,Cc1nn(-c2ccccc2)c(C)c1/C=N/NC(=O)c1cc(C23CC4CC(CC(C4)C2)C3)[nH]n1,inactive
15,C(=C/c1ccnc2nc(SC/C=C/c3ccccc3)nn12)/c1ccccc1,inactive
16,Cc1cccc(N(C(=O)c2ccc(Cl)cc2)C2CS(=O)(=O)CC2OC(=O)c2ccc(Cl)cc2)c1 (stereo unspecified),inactive
17,O=C(Cn1c2ccccc2c(=O)c2ccccc21)N/N=C/c1cc([N+](=O)[O-])ccc1N1CCCCCC1,inactive
18,CCOc1ccccc1NC(=O)CN(c1ccc(C)cc1)S(=O)(=O)c1c(C)noc1C,inactive
19,Cn1c(=O)cc(SCC(=O)NCCN2CCN(c3ccccc3F)CC2)c2cc(Cl)ccc21,inactive
20,CC(/C=N/n1c(C2CCCCC2)n[nH]c1=S)=C\c1ccccc1,inactive
21,O=C(O)CCCCCNc1nc(=S)[nH]c2ccccc12,inactive
22,CCCNc1cc(=O)n(C)c(=O)n1C,inactive

row,Structure (SMILES),inhibition
1,COc1cccc(-c2nnc(NC(=O)c3ccc(S(=O)(=O)N(CC(C)C)CC(C)C)cc3)o2)c1,inactive
2,O=C(CCC(=O)OC(C(=O)c1ccccc1)c1ccccc1)Nc1ccccc1 (stereo unspecified),inactive
3,CCCC(=O)Nc1ccc2c(c1)nc(CCNC(=O)c1ccccc1)n2C,inactive
4,CC(C)(C)c1cc(NCCCn2ccnc2)n2ncc(-c3ccc(Cl)cc3)c2n1,inactive
5,Cc1ccc2nc(NC(=O)c3cccc(-c4cc5ccccc5oc4=O)c3)sc2c1,inactive
6,CN1/C(=C\C=C\C2=[N+](C)c3ccc4ccccc4c3C2(C)C)C(C)(C)c2ccccc21,inactive
7,CCOC(=O)c1ccc(NC(=O)CSc2nc(NC(=O)c3ccccc3)c3c(C)c(C)oc3n2)cc1,inactive
8,Cc1nnc(NC(=O)Nc2ccc(Cl)c(Cl)c2)s1,inactive
9,COc1cccc(/C=N/NC(=O)c2ccc(-c3ccccc3)cc2)c1O,inactive
10,c1ccc(-c2ccc(C3=Nn4c(nnc4-c4cc(-c5ccccc5)n[nH]4)SC3)cc2)cc1,inactive
11,CC(=O)Nc1nonc1NC(=O)c1ccc(C(C)(C)C)cc1,inactive
12,O=c1c(/C=N/Nc2ccccc2)c(Sc2nnnn2-c2ccccc2)nc2ccccn12,inactive
13,COc1ccc(NC(=O)C2CCCO2)cc1Cl (stereo unspecified),inactive
14,O=C(N/N=C/c1ccc2ccccc2c1)c1ccc(COc2ccc3c(c2)CCC3)o1,inactive
15,COc1ccc(NC(=O)CSc2ccc3c4c(cccc24)C(=O)c2ccccc2-3)cc1,inactive
16,CCOC(=O)c1cn(-c2nc(-c3ccc(Cl)c(Cl)c3)cs2)c2c(F)c(N3CCOCC3)c(F)cc2c1=O,inactive
17,CCn1nc(C(=O)OCC(=O)c2cc(C)n(Cc3cccs3)c2C)c2ccccc2c1=O,inactive
18,Cc1cc(C)cc(-n2c3nc4ccccc4nc3c3c(=O)n(Cc4ccco4)cnc32)c1,inactive
19,CSc1ccc(/C=N\NC(=O)COc2ccc(Cl)cc2Br)cc1,inactive
20,COc1cc(OC)cc(C(=O)Nc2ccccc2C(=O)N2CCCC2)c1,inactive
21,CN(C)c1ccc(/C=N/N=C2/NC(=O)/C(=C/c3ccc([N+](=O)[O-])cc3)S2)cc1,inactive
22,COc1ccc(S(=O)(=O)Nc2ccc(S(=O)(=O)N3CCCCC3)cc2)cc1,inactive
